One may read the inhibition as how much of the control response was suppressed. In general, EC50 refers to the concentration giving half of the maximal effect. A lower EC50 goes with a more potent agent.

In the test the target is T1, γ-secretase (Homo sapiens, UniProt P49768).
T1 construct: endogenous in cells; host or cells: SKNBE2 cells carrying APP 695 wild type
The test is described as follows: Screening for γ-secretase-modulating activity in SKNBE2 cells carrying the APP 695 wild type. The format is cell-based. The settings on record: SKNBE2 cells carrying APP 695 wild type; for % printed in the EC50 column, no concentration given: concentration not given. On the procedure:
Screening of the Compounds of the Invention for γ-Secretase-Modulating Activity
Screening was carried out using SKNBE2 cells carrying the APP 695—wild type, grown in DMEM/NUT-mix F12 (HAM) provided by Gibco (cat no. 31330-38) containing 5% Serum/Fe supplemented with 1% non-essential amino acids.
Cells were grown to near confluency.
The screening was performed using the assay as described in Citron et al (1997) Nature Medicine 3: 67.

The compound `CC(C)CCC(Nc1cc(CC(=O)O)cc(-c2ccc(C(F)(F)F)cc2)c1)c1cc(F)cc(F)c1` (centres unmarked) [Compound 33] displayed an inhibition at 0.3 µM (0.3 μM) of 11%.

For `CC(C)CC(C(=O)O)c1cc(-c2cc(F)cc(C(F)(F)F)c2)cc(N(C)c2cc(C(F)(F)F)cc(C(F)(F)F)c2)c1` (centres unmarked) [Example 25, 2-[5′-Fluoro-5-(N-[3,5-bis-(trifluoromethyl)phenyl]-N-methylamino)-3′-trifluoromethyl-biphenyl-3-yl]-4-methyl-pentanoic acid], the EC50 turned out to be 600 nM. In turn, `CC(C)CCN(Cc1cc(CC(=O)O)cc(-c2ccc(C(F)(F)F)cc2)c1)Cc1ccc(Cl)c(F)c1` [Compound 57, (5-{[(4-Chloro-3-fluoro-benzyl)-(3-methyl-butyl)-amino]-methyl}-4′-trifluoromethyl-biphenyl-3-yl)-acetic acid] showed an inhibition at 0.3 µM (0.3 μM) of 11%. `CC(C)CCN(c1ccc(C(F)(F)F)cc1)c1cc(-c2ccc(C(F)(F)F)cc2)cc(C(CC(C)C)C(=O)O)c1` (centres unmarked) [Example 20, 4-Methyl-2-{5-[(3-methyl-butyl)-(4-trifluoromethyl-phenyl)-amino]-4′-trifluoromethyl-biphenyl-3-yl}-pentanoic acid]: the EC50 was determined as 170 nM. Same read-out and setting: the same measure for `CC(C)CC(C(=O)O)c1cc(-c2ccc(C(F)(F)F)cc2)cc(N(C)c2ccc(Cl)cc2)c1` (single isomer, unassigned) [Example 22, (S*)2-{5-[(4-Chloro-phenyl)-methyl-amino]-4′-trifluoromethyl-biphenyl-3-yl}-4-methyl-pentanoic acid]: 2150 nM. Where the note is “0.3 μM”, `CC(C)CC(=O)N(c1ccc(Cl)cc1)c1cc(-c2ccc(C(F)(F)F)cc2)cc(C(CC(C)C)C(=O)O)c1` (centres unmarked) [Example 23, 2-{5-[(4-Chloro-phenyl)-(3-methyl-butyryl)-amino]-4′-trifluoromethyl-biphenyl-3-yl}-4-methyl-pentanoic acid] displayed an inhibition at 0.3 µM of 21%. As to `CC(C)CCN(Cc1cc(F)cc(F)c1)Cc1cc(-c2ccc(C(F)(F)F)cc2)cc(C(CC(C)C)C(=O)O)c1` (centres unmarked) [Compound 59, 2-(5-{[(3,5-Difluoro-benzyl)-(3-methyl-butyl)-amino]-methyl}-4′-trifluoromethyl-biphenyl-3-yl)-4-methyl-pentanoic acid], a half-maximal response (EC50) required 240 nM. `CC(C)CC(C(=O)O)c1cc(-c2ccc(C(F)(F)F)cc2)cc(N2CCCc3ccc(C(F)(F)F)cc32)c1` (centres unmarked) [Compound 26, 4-Methyl-2-[4′-trifluoromethyl-5-(7-trifluoromethyl-3,4-dihydro-2H-quinolin-1-yl)-biphenyl-3-yl]-pentanoic acid] showed an EC50 of 360 nM. The same measure, in the same setting: next, `CC(C)CCN(Cc1cc(-c2ccc(C(F)(F)F)cc2)cc([C@@H](CC(C)C)C(=O)O)c1)c1ccc(C(F)(F)F)cc1` [Compound 63, 4-Methyl-2-(5-{[(3-methyl-butyl)-(4-trifluoromethyl-phenyl)-amino]-methyl}-4′-trifluoromethyl-biphenyl-3-yl)-pentanoic acid]: 250 nM. `CC(C)CC(C(=O)O)c1cc(-c2ccc(C(F)(F)F)cc2)cc(N(C)c2ccc(C(F)(F)F)nc2)c1` (centres unmarked) [Example 15, 4-Methyl-2-{5-[methyl-(6-trifluoromethyl-pyridin-3-yl)-amino]-4′-trifluoromethyl-biphenyl-3-yl}-pentanoic acid] yielded a concentration for a half-maximal effect (EC50) of 850 nM. Same read-out and setting: next, `CC(C)CC(C(=O)O)c1cc(-c2ccc(C(F)(F)F)cc2)cc(N(C)c2cc(C(F)(F)F)cc(C(F)(F)F)c2)c1` (centres unmarked) [Example 10, 2-{5-[(3,5-Bis-trifluoromethyl-phenyl)-methyl-amino]-4′-trifluoromethyl-biphenyl-3-yl}-4-methyl-pentanoic acid]: 190 nM.

In the case of `CC(C)CC(C(=O)O)c1cc(-c2ccc(C(F)(F)F)cc2)cc(N(C)c2cc[n+](C)cc2)c1` (centres unmarked) [Example 16, 4-{[5-(1-Carboxy-3-methyl-butyl)-4′-trifluoromethyl-biphenyl-3-yl]-methyl-amino}-1-methyl-pyridinium], for the setting “0.3 μM”, the inhibition at 0.3 µM came to 13%. Still for that read-out and setting: the same measure for `CC(C)C[C@@H](C(=O)O)c1cc(NCc2ccc(OC(F)(F)F)cc2)cc(-c2ccc(C(F)(F)F)cc2)c1` [Compound 41, 4-Methyl-2-[5-(4-trifluoromethoxy-benzylamino)-4′-trifluoromethyl-biphenyl-3-yl]-pentanoic acid]: 0%.

In turn, `CC(C)CCN(Cc1cc(-c2ccc(C(F)(F)F)cc2)cc(C(CC(C)C)C(=O)O)c1)Cc1cccc(C(F)(F)F)c1` (centres unmarked) [Compound 61, 4-Methyl-2-(5-{[(3-methyl-butyl)-(3-trifluoromethyl-benzyl)-amino]-methyl}-4′-trifluoromethyl-biphenyl-3-yl)-pentanoic acid] returned an EC50 of 390 nM. The compound `CC(C)CCN(Cc1ccc(C(F)(F)F)cc1)Cc1cc(-c2ccc(C(F)(F)F)cc2)cc(C(CC(C)C)C(=O)O)c1` (centres unmarked) [Compound 56, 4-Methyl-2-(5-{[(3-methyl-butyl)-(4-trifluoromethyl-benzyl)-amino]-methyl}-4′-trifluoromethyl-biphenyl-3-yl)-pentanoic acid] yielded a concentration for a half-maximal effect (EC50) of 220 nM. The compound `CC(C)CCC(Nc1cc(-c2ccc(C(F)(F)F)cc2)cc(C(CC(C)C)C(=O)O)c1)c1cc(F)cc(F)c1` (centres unmarked) [Compound 29, 2-{5-[1-(3,5-Difluoro-phenyl)-4-methyl-pentylamino]-4′-trifluoromethyl-biphenyl-3-yl}-4-methyl-pentanoic acid] displayed a concentration giving a half-maximal response (EC50) of 300 nM. With `CC(C)CC(C(=O)O)c1cc(NCc2ccc(C(C)(C)C)cc2)cc(-c2ccc(C(F)(F)F)cc2)c1` (centres unmarked) [Compound 37, 2-[5-(4-tert-Butyl-benzylamino)-4′-trifluoromethyl-biphenyl-3-yl]-4-methyl-pentanoic acid], 0.3 µM produced 18% inhibition (0.3 μM). On the same count and under the same terms, the same measure for `CC(C)CC(C(=O)O)c1cc(-c2ccc(C(F)(F)F)cc2)cc(N(C)c2ccc(F)cc2C(F)(F)F)c1` (centres unmarked) [Example 11, 2-{5-[(4-Fluoro-2-trifluoromethyl-phenyl)-methyl-amino]-4′-trifluoromethyl-biphenyl-3-yl}-4-methyl-pentanoic acid]: 23%. Compound `CC(C)CCC(Nc1cc(-c2ccc(C(F)(F)F)cc2)cc(C(CC(C)C)C(=O)O)c1)c1ccc(C(F)(F)F)cc1` (centres unmarked) [Compound 31, 4-Methyl-2-{5-[4-methyl-1-(4-trifluoromethyl-phenyl)-pentylamino]-4′-trifluoromethyl-biphenyl-3-yl}-pentanoic acid] registered an EC50 of 270 nM. Take `CC(C)CC(C(=O)O)c1cc(-c2ccc(C(F)(F)F)cc2)cc(N(C)c2ccc(C(C)C)cc2)c1` (centres unmarked) [Example 7, 2-{5-[(4-Isopropyl-phenyl)-methyl-amino]-4′-trifluoromethyl-biphenyl-3-yl}-4-methyl-pentanoic acid]: the “% printed in the EC50 column, no concentration given” value was determined as 8%. Regarding `CC(C)CCN(c1ccc(Cl)cc1)c1cc(-c2ccc(C(F)(F)F)cc2)cc(C(CC(C)C)C(=O)O)c1` (centres unmarked) [Example 18, 2-{5-[(4-Chloro-phenyl)-(3-methyl-butyl)-amino]-4′-trifluoromethyl-biphenyl-3-yl}-4-methyl-pentanoic acid], the EC50 was 150 nM. The same measure, in the same setting: next, `CC(C)CCN(Cc1cc(-c2ccc(C(F)(F)F)cc2)cc([C@@H](CC(C)C)C(=O)O)c1)Cc1ccc(F)c(F)c1` (stereo in doubt) [Example 5, 2-(5-{[(3,4-Difluoro-benzyl)-(3-methyl-butyl)-amino]-methyl}-4′-trifluoromethyl-biphenyl-3-yl)-4-methyl-pentanoic acid]: 65 nM. For the compound “2-(5-(2,4-difluorobenzylamino)-4′-(trifluoromethyl)biphenyl-3-yl)-4-methyl pentanoic acid [Compound 52]”, the “inhibition @ 0.3 μM” value (0.3 μM) worked out at 0% inhi- bition @ 0.3 μM. `CC(C)CCN(Cc1cc(F)cc(F)c1)c1cc(-c2ccc(C(F)(F)F)cc2)cc([C@@H](CC(C)C)C(=O)O)c1` [Compound 40, 2-{5-[(3,5-Difluoro-benzyl)-(3-methyl-butyl)-amino]-4′-trifluoromethyl-biphenyl-3-yl}-4-methyl-pentanoic acid] registered a concentration giving a half-maximal response (EC50) of 190 nM. Take `CC(C)CC(C(=O)O)c1cc(-c2ccc(C(F)(F)F)cc2)cc(N(C)c2ccc(C#N)cc2)c1` (centres unmarked) [Example 8, 2-{5-[(4-Cyano-phenyl)-methyl-amino]-4′-trifluoromethyl-biphenyl-3-yl}-4-methyl-pentanoic acid]: the “% printed in the EC50 column, no concentration given” value is −0%. Take `CC(C)CC(C(=O)O)c1cc(NCc2ccc(F)cc2C(F)(F)F)cc(-c2ccc(C(F)(F)F)cc2)c1` (centres unmarked) [Compound 51, 2-(5-(4-fluoro-2-(trifluoromethyl)benzylamino)-4′-(trifluoromethyl)biphenyl-3-yl)-4-methylpentanoic acid]: it took 640 nM to reach a half-maximal effect (EC50). Still for that read-out and setting: the same measure for `CC(C)CCN(Cc1ccc(OC(F)(F)F)cc1)c1cc(-c2ccc(C(F)(F)F)cc2)cc([C@@H](CC(C)C)C(=O)O)c1` [Compound 42, (R) 4-Methyl-2-{5-[(3-methyl-butyl)-(4-trifluoromethoxy-benzyl)-amino]-4′-trifluoromethyl-biphenyl-3-yl}-pentanoic acid]: 640 nM; for `CC(C)CCN(Cc1ccc(C(F)(F)F)cc1)Cc1cc(CC(=O)O)cc(-c2ccc(C(F)(F)F)cc2)c1` [Compound 58, (5-{[(3-Methyl-butyl)-(4-trifluoromethyl-benzyl)-amino]-methyl}-4′-trifluoromethyl-biphenyl-3-yl)-acetic acid]: 590 nM.

`CC(C)CC(C(=O)O)c1cc(-c2ccc(Cl)c(C(F)(F)F)c2)cc(N(C)c2cc(C(F)(F)F)cc(C(F)(F)F)c2)c1` (centres unmarked) [Compound 27, 2-[4′-Chloro-5-(N-[3,5-bis-(trifluoromethyl)phenyl]-N-methylamino)-3′-trifluoromethyl-biphenyl-3-yl]-4-methyl-pentanoic acid]: it took 480 nM to reach a half-maximal effect (EC50).

These data come from patent US8247610B2, “Amine linked modulators of γ-secretase” (Janssen Pharmaceutica N.V., priority 2007, dated 2012).
